This is an account of results in ChEMBL document CHEMBL1129848, “Synthesis and evaluation of imidazolidinones as nonpeptide HIV-protease inhibitors” (Bioorg Med Chem Lett, 1997).

Experiment [1] addresses T1, Human immunodeficiency virus type 1 protease (Human immunodeficiency virus 1, UniProt Q72874). The experiment in a line: Compound was tested for the inhibitory activity against HIV-protease.
In experiment [2] the target is T1, Human immunodeficiency virus type 1 protease. The experiment can be described thus: Inhibition of HIV-protease.

With `O=C1N(Cc2cccc(CO)c2)[C@H](Cc2ccccc2)[C@@H](Cc2ccccc2)N1Cc1cccc(CO)c1`, in experiment [1], the affinity, expressed as Ki, was 15500 nM.
The molecule `O=C1N(CC2CC2)[C@H]([C@@H](F)Cc2ccccc2)[C@@H]([C@@H](F)Cc2ccccc2)N1CC1CC1` returned an inhibition constant (Ki) in experiment [2] of 980 nM.
As for `O=C1N(Cc2cccc(CO)c2)[C@H](CCc2ccccc2)[C@@H](CCc2ccccc2)N1Cc1cccc(CO)c1`, the affinity in experiment [2], expressed as Ki, was 55 nM.
As to `O=C1N(Cc2cccc(CO)c2)[C@H](Cc2ccccc2)CC[C@@H](Cc2ccccc2)N1Cc1cccc(CO)c1`, the Ki in experiment [2] stood at 170 nM.
In turn, `O=C1N(Cc2cccc(O)c2)[C@H]([C@@H](F)Cc2ccccc2)[C@@H]([C@@H](F)Cc2ccccc2)N1Cc1cccc(O)c1` came in with a Ki in experiment [2] of 560 nM.
`O=C1N(Cc2ccc3ccccc3c2)[C@H]([C@@H](F)Cc2ccccc2)[C@@H]([C@@H](F)Cc2ccccc2)N1Cc1ccc2ccccc2c1`: the affinity in experiment [2], expressed as Ki, was 1400 nM.
In experiment [2], `O=C1N(Cc2cccc(CO)c2)[C@H](CCc2ccccc2)C[C@@H](Cc2ccccc2)N1Cc1cccc(CO)c1` returned a Ki of 99 nM.
In experiment [2], `O=C(Oc1cccc(CN2C(=O)N(Cc3cccc(OC(=O)c4ccccc4)c3)[C@H]([C@@H](F)Cc3ccccc3)[C@H]2[C@@H](F)Cc2ccccc2)c1)c1ccccc1` gave a Ki of 425 nM.
The molecule `COC(=O)c1cccc(CN2C(=O)N(Cc3cccc(C(=O)OC)c3)[C@H](CCc3ccccc3)[C@H]2[C@@H](Br)Cc2ccccc2)c1` showed an inhibitory constant (Ki) in experiment [2] of 920 nM.
As for `N=C(NO)c1cccc(CN2C(=O)N(Cc3cccc(C(=N)NO)c3)[C@H](CCc3ccccc3)[C@H]2CCc2ccccc2)c1`, affinity in experiment [2] was put at a Ki of 17 nM.
In experiment [2], `COC(=O)c1cccc(CN2C(=O)N(Cc3cccc(C(=O)OC)c3)[C@H](CCc3ccccc3)[C@H]2CCc2ccccc2)c1` had an inhibition constant (Ki) of 470 nM.
The same measure, in the same setting: the same measure for `O=C1N(Cc2cccc(CO)c2)[C@H]([C@@H](O)Cc2ccccc2)[C@@H](CCc2ccccc2)N1Cc1cccc(CO)c1`: 23 nM.
With `COC(=O)c1cccc(CN2C(=O)N(Cc3cccc(C(=O)OC)c3)[C@H](CCc3ccccc3)[C@H]2[C@@H](O)Cc2ccccc2)c1`, the inhibition constant (Ki) in experiment [2] came to 100 nM.
In turn, `C=CCN1C(=O)N(CC=C)[C@H]([C@@H](F)Cc2ccccc2)[C@H]1[C@@H](F)Cc1ccccc1` yielded a Ki in experiment [2] of 2500 nM.

The term Ki denotes a measure of affinity in units of concentration, obtained from inhibition or displacement. The low end stands for a stronger hold on the target, the high end for a looser hold on the target.
